In patent US20230114207A1, “THE COMBINATION OF CYCLIN DEPENDENT KINASE 7 INHIBITOR AND IMMUNOTHERAPY FOR TREATMENT OF CANCER” (Dana-Farber Cancer Institute, Inc., priority 2019, published 2023):

Tested on: INSM1, ASCL1, NFIB and MYC in DMS79 and GLC16
Assay: RT-qPCR of super enhancer (SE)-associated genes
Type: cell-based, human
Settings: 24 hr
Procedure: Cell pellets were collected and then subjected to total RNA extraction using RNeasy Plus Mini Kit (QIAGEN, Cat #74136) according to the manufacturer's instructions, or using TRIzol:Chloroform phase-separation by centrifugation followed by RNA precipitation using isopropanol. The extracted RNA was reversely transcribed into cDNA using the High-Capacity RNA-to-cDNA™ Kit (Thermo Fisher Scientific, Cat #4387406) according to the manufacturer's instructions. The obtained cDNA samples were diluted and used for RT-qPCR. PowerUp™ SYBR™ Green Master Mix (Thermo Fisher Scientific, Cat #A25742) or TaqMan Gene Expression Master Mix (Life Technologies, Cat #4369514). Gene specific primers with sequences listed in Table 3 were used for PCR amplification and detection on the StepOnePlus™ Real-Time PCR System (Thermo Fisher Scientific). RT-qPCR data were normalized to Actb (mouse cells) or GUSB (human cells) and presented as fold changes of gene expression in the test sample compared to the control.

## CN(C)C/C=C/C(=O)Nc1ccc(C(=O)Nc2cccc(Nc3ncc(Cl)c(-c4c[nH]c5ccccc45)n3)c2)cc1 [THZ1, reference compound]
  expression of super enhancer (SE)-associated genes including INSM1, ASCL1, NFIB and MYC: significant reduction
